Measurements taken from patent EP1401829B1, “NOVEL HETEROCYCLIC ANTIBACTERIAL COMPOUNDS” (Microbiotix, Inc., priority 2001, dated 2002).
Values after ≈ are worked out from the molar mass of the structure shown. Marks after values point to notes of the source that are not given here.

Tests used:
MSSA108 = assay: MIC against clinically relevant strains; type: cell-based; conditions: Staphylococcus aureus; methicillin sensitive S. aureus strain
[1] = tested on: Staphylococcus aureus (Smith strain); assay: Protection of mice from lethal intraperitoneal infection, compound given intraperitoneally; type: in vivo; conditions: Swiss Webster mice, groups of five, 15 minutes after infection
Method: • Figures 1A and 1B. Figure 1A is a diagram of the structural formula for Compound 2 (i.e., 3-{4-[1-(1-cyclopropyl-3-carboxy-4-oxo-6-fluoro-7-quinolyl)-4-piperazinyl]butyl}-6-(3-ethyl- 4-methylanilino)uracil). • Figure 1B is a bar graph showing number of survivors in each group of five mice at 24 hours after intraperitoneal infection with 1 x 10^8 colony forming units (CFU) of Staphylococcus aureus (Smith strain) and followed 15 minutes post infection by administration of Compound 2 at a dose of 0 (Vehicle Control), 1, 3, and 10 mg of compound per kg of body weight. Vancomycin at a dose of 10 mg/kg of body weight served as a positive control for antibiotic activity. See text for details. • Figures 2A and 2B. Figure 2A is a diagram of the structural formula for Compound 10 (i.e., 3-{4-[1-(1-cyclopropyl-3-carboxy-4-oxo-6-fluoro-7-quinolyl)-4-piperazinyl]butyl}-6-(3-ethyl-4-methylanilino)uracil methanesulfonate). • Figure 2B is a bar graph showing number of survivors of a group of five mice at 24 hours after intraperitoneal infection with Staphylococcus aureus (Smith strain) as in Figure 1B, except that Compound 10 was administered to each animal at 0, 0.1, 0.3, 1.0, 3.0, and 10 mg/kg body weight at 15 minutes post infection. Controls were the same as in Figure 1B. See text for details. • Figures 3A and 3B. […] Abbreviations: cPr is cyclopropyl; Et is ethyl; dFPh is 2,4-difluorophenyl. • Figure 3B is a bar graph showing number of survivors in each group of five mice at 24 hours after intraperitoneal infection with Staphylococcus aureus (Smith strain) as in Figure 1, except that 15 minutes after infection, the mice in each group received a dose of 0.5 mg/kg of body weight of compound 10, 4, 5, 6, 7, 8, or 12. Controls were the same as in Figure 1. See text for details.
(§1) Swiss Webster mice, ca. 20 g each, were infected with Staphylococcus aureus (Smith strain) by the intraperitoneal route. Test compounds (2, 4, 5, 6, 7, 8, 10, 12) were dissolved in 10% dimethylsulfoxide in peanut oil to a concentration of 2 mg/ml. Vancomycin was used as positive control drug (i.e., protection from lethal infection). Fifteen minutes after infection, test compounds, vancomycin, or vehicle alone were given intraperitoneally to groups of five mice each. Animals were monitored for three days, and the number of mice surviving was tabulated for each treatment.

[2] = tested on: Staphylococcus aureus (Smith); assay: In vivo efficacy of Compound 70 in mouse models; conditions: mice, 10^8 CFU/mouse, regimen 1 (t=0)
Method: as §1
(§2) Using the same basic procedure as described above, the in vivo efficacy of Compound 70 was also evaluated at various doses in mice infected with S. aureaus (Smith), MRSA 1094, Enterococcus faecalis, or vancomycin-resistant Enterococcus faecalis strain VRE 700802. […] Negative controls were mice infected that received no treatment. Mucin was employed as an adjuvant to facilitate bacterial infection in mice, where indicated.

[3] = tested on: Enterococcus faecalis (ATCC 29212); assay: In vivo efficacy of Compound 70 in mouse models; conditions: mice, 3x10^7 CFU/mouse + 5% Mucin
Method: as §1, §2

[4] = dosage range 1-10 mg/kg body weight intraperitoneally

Structure (SMILES) | MIC (MSSA108) | protection of infected mice (number of survivors) [1, 4] | protection of infected mice (number of survivors) ([1]; 0.3 mg per kg body weight intraperitoneally) | protection of infected mice (number of survivors) ([1]; 1 mg/kg or higher intraperitoneally) | % Survival at 72 hours ([2]; dose 3.125 mg/kg) | % Survival at 72 hours ([2]; dose 12.5 mg/kg) | % Survival at 72 hours ([2]; dose 25 mg/kg) | % Survival at 72 hours ([2]; dose 50 mg/kg) | % Survival at 72 hours ([3]; dose 25 mg/kg, regimen 1 (t=0)) | % Survival at 72 hours ([3]; dose 25 mg/kg, regimen 2 (t=0,2)) | % Survival at 72 hours ([3]; dose 50 mg/kg, regimen 1 (t=0)) | % Survival at 72 hours ([3]; dose 50 mg/kg, regimen 2 (t=0,2)) | % Survival at 72 hours ([3]; dose 75 mg/kg, regimen 1 (t=0))
CCc1cc(Nc2cc(=O)n(CCCCN3CCN(c4cc5c(cc4F)c(=O)c(C(=O)O)cn5C4CC4)CC3)c(=O)[nH]2)ccc1C [Compound 2, 3-{4-[1-(1-cyclopropyl-3-carboxy-4-oxo-6-fluoro-7-quinolyl)-4-piperazinyl]butyl}-6-(3-ethyl-4-methylanilino)uracil] | 0.313 µg/mL (≈ 0.496 µM) | all five |  |  |  |  |  |  |  |  |  |  | 
CCc1cc(Nc2cc(=O)n(CCCCN3CCN(c4cc5c(cc4F)c(=O)c(C(=O)O)cn5C4CC4)CC3)c(=O)[nH]2)ccc1C.CS(=O)(=O)O [Compound 10, 3-{4-[1-(1-cyclopropyl-3-carboxy-4-oxo-6-fluoro-7-quinolyl)-4-piperazinyl]butyl}-6-(3-ethyl-4-methylanilino)uracil methanesulfonate] | 0.625 µg/mL | provided protection in the same dosage range as Compound 2 | one of five | complete protection |  |  |  |  |  |  |  |  | 
CCc1cc(Nc2cc(=O)n(CCCCN3CCN(c4c(F)cc5c(=O)c(C(=O)O)cn(C6CC6)c5c4F)CC3C)c(=O)[nH]2)ccc1C (stereo not drawn) [Compound 70, 3-{4-[1-(1-cyclopropyl-3-carboxy-4-oxo-6,8-difluoro-7-quinolyl)-3-methyl-4-piperazinyl]butyl}-6-(3-ethyl-4-methylanilino)uracil] |  |  |  |  | 0% (0/5) | 40% (6/15) | 100% (20/20)** | 100% (10/10)** | 40% (2/5) | 40% (2/5) | 60% (3/5) | 80% (8/10)** | 80% (4/5)
